Biological target: T1, human Edg-1(S1P1) (Homo sapiens, UniProt P21453)
T1 construct: expressed in transfected cells; host or cells: HEK-293
Assay: S1P1 Binding Test ([33P]-S1P, membrane fraction of HEK-293 cell line carrying the human Edg-1(S1P1) gene)
Conditions: [33P]-S1P 0.1 nM; for IC50: membrane binding test at various concentrations, read-out: IC50 value, Edg-1(S1P1) binding inhibition; for inhibition at 10 µM: compound at 10 μM, 30° C., 1 hour, read-out: inhibition rate of Edg-1(S1P1) binding
Method: The membrane fraction of a HEK-293 cell line carrying the human Edg-1(S1P1) gene was used to study the compounds of the present invention for their inhibitory effect on Edg-1(S1P1) binding, as described in Science. […] To obtain the membrane fraction, treatment with solubilizing buffer (1 mM Tris/HCl, pH 7.2) for 10 minutes on ice was performed, followed by centrifugation at 1000×g for 5 minutes to remove an insoluble fraction and then at 40000×g for 30 minutes at 4° C. The resulting membrane fraction was dissolved in binding buffer (20 mM Tris-HCl, pH 7.4, 100 mM NaCl, 15 mM NaF, 2 mM deoxypyridoxine, 4 mg/mL fatty acid-free BSA), followed by addition of binding buffer containing [^33P]-S1P (ARC, final concentration: 0.1 nM) and DMSO solution of a test compound (final concentration of the compound: 10^−5 M, final concentration of DMSO: 0.1%). After stirring, the reaction solution was incubated at 30° C. for 1 hour. The membrane fraction was collected onto a unifilter-96 GF/C filter (Perkin Elmer) using a harvester and washed four times with binding buffer, followed by drying the filter. After addition of 25 μL Microscint 0 (Perkin Elmer), radioactivity was measured with a Top Count NXT (Packard) to calculate amount (A), i.e., the amount of [^33P]-S1P binding to the membrane fraction in the presence of the compound.
The same procedure was performed in the absence of any test compound to calculate amount (B), i.e., the amount of [^33P]-S1P binding. Moreover, the same procedure was also performed with HEK-293 cells carrying no Edg-1(S1P1) gene in the absence of any test compound to calculate amount (C), i.e., the amount of background [^33P]-S1P binding.
The inhibition rate of Edg-1(S1P1) binding was calculated for each compound by the following equation. Inhibition rate (%)=[1−(A−C)/(B−C)]×100
Moreover, the activity of each test compound was calculated as a value (IC50 value) showing 50% of the radioactivity obtained in the absence of any test compound. Namely, the above membrane system binding test was performed in the presence of a test compound at various concentrations to calculate an IC50 value according to the dose-dependent inhibition curve analyzed with data analysis software, Origin (Lightstone Corp., Japan).

T1 sequence (P21453 whole entry): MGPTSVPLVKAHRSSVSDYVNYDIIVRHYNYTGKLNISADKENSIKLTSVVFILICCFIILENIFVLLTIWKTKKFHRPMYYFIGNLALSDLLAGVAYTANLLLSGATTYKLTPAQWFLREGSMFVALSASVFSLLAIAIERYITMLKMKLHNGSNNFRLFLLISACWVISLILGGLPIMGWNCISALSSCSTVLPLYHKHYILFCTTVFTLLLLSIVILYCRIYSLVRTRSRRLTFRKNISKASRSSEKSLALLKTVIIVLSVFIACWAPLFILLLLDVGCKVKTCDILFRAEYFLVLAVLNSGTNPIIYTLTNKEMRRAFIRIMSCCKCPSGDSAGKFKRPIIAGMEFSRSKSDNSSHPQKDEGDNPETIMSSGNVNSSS

Row | IC50 [nM] | inhibition at 10 µM [%] | Compound
1 | 33 | ≥ 3 | CCc1c(C(C)NS(=O)(=O)c2ccc3c(Cl)cccc3c2)ccnc1Sc1cccc(N2CCN(C)CC2)c1 (single isomer, unassigned) [Compound 61]
2 | – | ≥ 3 | CCc1c(C(C)NS(=O)(=O)c2ccc(OC)cc2)ccnc1Oc1cccc(N2CCOCC2)c1 (stereo not drawn) [Compound 36]
3 | – | ≥ 3 | CCc1c(C(C)NS(=O)(=O)c2ccc(C(F)(F)F)cc2)ccnc1Oc1cccc(N2CCOCC2)c1 (stereo not drawn) [Compound 37]
4 | – | ≥ 3 | CCc1c(C(C)NS(=O)(=O)c2ccc(OC(F)(F)F)cc2)ccnc1Oc1cccc(N2CCOCC2)c1 (stereo not drawn) [Compound 38]
5 | – | ≥ 3 | CCc1c(C(C)NS(=O)(=O)c2ccc([N+](=O)[O-])cc2)ccnc1Oc1cccc(N2CCOCC2)c1 (stereo not drawn) [Compound 39]
6 | – | ≥ 3 | CCc1c(C(C)NS(=O)(=O)c2ccc(C#N)cc2)ccnc1Oc1cccc(N2CCOCC2)c1 (stereo not drawn) [Compound 40]
7 | – | ≥ 3 | CCc1c(C(C)NS(=O)(=O)c2ccc(Cl)cc2)ccnc1Oc1cccc(N2CCOCC2)c1 (stereo not drawn) [Compound 41]
8 | – | ≥ 3 | CCc1c(C(C)NS(=O)(=O)c2cccc(Br)c2)ccnc1Oc1cccc(N2CCOCC2)c1 (stereo not drawn) [Compound 42]
9 | – | ≥ 3 | CCc1c(C(C)NS(=O)(=O)c2ccccc2F)ccnc1Oc1cccc(N2CCOCC2)c1 (stereo not drawn) [Compound 43]
10 | – | ≥ 3 | CCc1c(C(C)NS(=O)(=O)c2ccc(C(C)=O)cc2)ccnc1Oc1cccc(N2CCOCC2)c1 (stereo not drawn) [Compound 44]
11 | – | ≥ 3 | CCc1c(C(C)NS(=O)(=O)c2ccc(F)c(Cl)c2)ccnc1Oc1cccc(N2CCOCC2)c1 (stereo not drawn) [Compound 45]
12 | – | ≥ 3 | CCc1c(C(C)NS(=O)(=O)c2ccc(C)c(Cl)c2)ccnc1Oc1cccc(N2CCOCC2)c1 (stereo not drawn) [Compound 46]
13 | – | ≥ 3 | CCc1c(C(C)NS(=O)(=O)c2ccc(Br)s2)ccnc1Oc1cccc(N2CCOCC2)c1 (stereo not drawn) [Compound 47]
14 | 63 | ≥ 3 | CCc1c(C(C)NS(=O)(=O)c2ccc(Cl)c(Cl)c2Cl)ccnc1Oc1cccc(N2CCOCC2)c1 (stereo not drawn) [Compound 48]
15 | – | ≥ 3 | CCc1c(C(C)NS(=O)(=O)c2cccnc2)ccnc1Oc1cccc(N2CCOCC2)c1 (stereo not drawn) [Compound 49]
16 | – | ≥ 3 | CCc1c(C(C)NS(=O)(=O)c2ccc3ncccc3c2)ccnc1Oc1cccc(N2CCOCC2)c1 (stereo not drawn) [Compound 50]
17 | – | ≥ 3 | CCc1c(C(C)NS(=O)(=O)c2cc3ccccc3s2)ccnc1Oc1cccc(N2CCOCC2)c1 (stereo not drawn) [Compound 51]

The remaining lines, values behind:

Row | Compound | IC50 [nM] | inhibition at 10 µM [%]
18 | 5-Chloro-naphthalene-2-sulfonic acid (1-{3-ethyl-4-[3-(4-methyl-piperazin-1-yl)-phenoxy]-pyridin-2-yl}-ethyl)-amide [Compound 4] | 121 | –
19 | CCc1c(Oc2ccc(C)cc2)nc(C)nc1C(C)NS(=O)(=O)c1ccc(Cl)c(Cl)c1 (stereo not drawn) [Compound 1] | – | ≥ 3
20 | CCc1c(Oc2ccc(C)cc2)nc(C)nc1C(C)NS(=O)(=O)c1ccc2c(Cl)cccc2c1 (stereo not drawn) [Compound 2] | – | ≥ 3
21 | CCc1c(C(C)NS(=O)(=O)c2ccc(Cl)c(Cl)c2)ccnc1Oc1cccc(N2CCN(C)CC2)c1 (stereo not drawn) [Compound 3, 3,4-Dichloro-N-(1-{3-ethyl-2-[3-(4-methyl-piperazin-1-yl)-phenoxy]-pyridin-4-yl}-ethyl)-benzenesulfonamide] | 107 | ≥ 3
22 | CCc1c(Oc2cccc(N3CCN(C)CC3)c2)ccnc1C(C)NS(=O)(=O)c1ccc(Cl)c(Cl)c1 (stereo not drawn) [Compound 5] | – | ≥ 3
23 | Cc1c(C(C)NS(=O)(=O)c2ccc(Cl)c(Cl)c2)ccnc1Oc1cccc(N2CCN(C)CC2)c1 (stereo not drawn) [Compound 6] | – | ≥ 3
24 | Cc1c(C(C)NS(=O)(=O)c2ccc3c(Cl)cccc3c2)ccnc1Oc1cccc(N2CCN(C)CC2)c1 (stereo not drawn) [Compound 7] | ≤ 200 | ≥ 3
25 | CC(NS(=O)(=O)c1ccc(Cl)c(Cl)c1)c1ccnc(Oc2cccc(N3CCN(C)CC3)c2)c1 (stereo not drawn) [Compound 8] | – | ≥ 3
26 | CC(NS(=O)(=O)c1ccc2c(Cl)cccc2c1)c1ccnc(Oc2cccc(N3CCN(C)CC3)c2)c1 (stereo not drawn) [Compound 9] | – | ≥ 3
27 | CCCc1c(C(C)NS(=O)(=O)c2ccc(Cl)c(Cl)c2)ccnc1Oc1cccc(N2CCN(C)CC2)c1 (stereo not drawn) [Compound 10] | – | ≥ 3
28 | CCCc1c(C(C)NS(=O)(=O)c2ccc3c(Cl)cccc3c2)ccnc1Oc1cccc(N2CCN(C)CC2)c1 (stereo not drawn) [Compound 11] | ≤ 200 | ≥ 3
29 | CCc1c(C(CC)NS(=O)(=O)c2ccc(Cl)c(Cl)c2)ccnc1Oc1cccc(N2CCN(C)CC2)c1 (stereo not drawn) [Compound 12] | – | ≥ 3
30 | CCc1c(C(CC)NS(=O)(=O)c2ccc3c(Cl)cccc3c2)ccnc1Oc1cccc(N2CCN(C)CC2)c1 (stereo not drawn) [Compound 13] | 47 | ≥ 3
31 | CCc1c(CNS(=O)(=O)c2ccc(Cl)c(Cl)c2)ccnc1Oc1cccc(N2CCN(C)CC2)c1 [Compound 14] | – | ≥ 3
32 | CCc1c(CNS(=O)(=O)c2ccc3c(Cl)cccc3c2)ccnc1Oc1cccc(N2CCN(C)CC2)c1 [Compound 15] | – | ≥ 3
33 | CCc1c(C(C)NS(=O)(=O)c2ccc(Cl)c(Cl)c2)ccnc1Oc1ccc(C)cc1 (stereo not drawn) [Compound 16] | – | ≥ 3
34 | CCc1c(C(C)NS(=O)(=O)c2ccc(Cl)c(Cl)c2)ccnc1Oc1ccc(OC)cc1 (stereo not drawn) [Compound 17] | – | ≥ 3
35 | CCc1c(C(C)NS(=O)(=O)c2ccc(Cl)c(Cl)c2)ccnc1Oc1ccc(Cl)cc1 (stereo not drawn) [Compound 18] | – | ≥ 3

Row | Compound | IC50 [nM] | inhibition at 10 µM [%]
36 | CCc1c(C(C)NS(=O)(=O)c2ccc(Cl)c(Cl)c2)ccnc1Oc1cccc(N2CCOCC2)c1 (stereo not drawn) [Compound 19] | 66 | ≥ 3
37 | CCc1c(C(C)NS(=O)(=O)c2ccc(Cl)c(Cl)c2)ccnc1Oc1ccc2ccncc2c1 (stereo not drawn) [Compound 20] | – | ≥ 3
38 | CCc1c(C(C)NS(=O)(=O)c2ccc(Cl)c(Cl)c2)ccnc1Oc1ccc2ccccc2c1 (stereo not drawn) [Compound 21] | – | ≥ 3
39 | CCc1c(C(C)NS(=O)(=O)c2ccc(Cl)c(Cl)c2)ccnc1Oc1cccc(N(C)C)c1 (stereo not drawn) [Compound 22] | ≤ 200 | ≥ 3
40 | CCc1c(C(C)NS(=O)(=O)c2ccc(Cl)c(Cl)c2)ccnc1OC (stereo not drawn) [Compound 23] | – | ≥ 3
41 | CCc1c(C(C)NS(=O)(=O)c2ccc(Cl)c(Cl)c2)ccnc1OCC(F)(F)F (stereo not drawn) [Compound 24] | – | ≥ 3
42 | CCc1c(C(C)NS(=O)(=O)c2ccc(Cl)c(Cl)c2)ccnc1OCc1ccccc1 (stereo not drawn) [Compound 25] | – | ≥ 3
43 | CCc1c(C(C)NS(=O)(=O)c2ccc(Cl)c(Cl)c2)ccnc1OC(C)C (stereo not drawn) [Compound 26, 3,4-Dichloro-N-[1-(2-isopropoxy-3-ethyl-pyridin-4-yl)-ethyl]-benzenesulfonamide] | – | ≥ 3
44 | CCc1c(C(C)NS(=O)(=O)c2ccc3c(Cl)cccc3c2)ccnc1Oc1cccc(N2CCOCC2)c1 (stereo not drawn) [Compound 27, 5-Chloronaphthalene-2-sulfonic acid {1-[3-ethyl-2-(3-morpholin-4-yl-phenoxy)-pyridin-4-yl]-ethyl}-amide] | 51 | ≥ 3
45 | CCc1c([C@@H](C)NS(=O)(=O)c2ccc(Cl)c(Cl)c2)ccnc1Oc1cccc(N2CCN(C)CC2)c1 [Compound 28, (R)-3,4-Dichloro-N-(1-{3-ethyl-2-[3-(4-methyl-piperazin-1-yl)-phenoxy]-pyridin-4-yl}-ethyl)-benzenesulfonamide] | 49 | ≥ 3
46 | CCc1c([C@H](C)NS(=O)(=O)c2ccc(Cl)c(Cl)c2)ccnc1Oc1cccc(N2CCN(C)CC2)c1 [Compound 29, (S)-3,4-Dichloro-N-(1-{3-ethyl-2-[3-(4-methyl-piperazin-1-yl)-phenoxy]-pyridin-4-yl}-ethyl)-benzenesulfonamide] | – | ≥ 3
47 | CCc1c(C(C)NS(=O)(=O)c2ccc(Cl)c(Cl)c2)ccnc1OC1CCC1 (stereo not drawn) [Compound 30] | – | ≥ 3
48 | CCc1c(C(C)NS(=O)(=O)c2ccc3c(Cl)cccc3c2)ccnc1Oc1cccc(N2CCN(C)CC2)c1 (stereo not drawn) [Compound 31] | 35 | ≥ 3
49 | CCc1c(C(C)NS(=O)(=O)c2ccccc2)ccnc1Oc1cccc(N2CCOCC2)c1 (stereo not drawn) [Compound 32] | – | ≥ 3
50 | CCc1c(C(C)NS(=O)(=O)c2ccccc2C)ccnc1Oc1cccc(N2CCOCC2)c1 (stereo not drawn) [Compound 33] | – | ≥ 3
51 | CCc1c(C(C)NS(=O)(=O)c2cccc(C)c2)ccnc1Oc1cccc(N2CCOCC2)c1 (stereo not drawn) [Compound 34] | – | ≥ 3
52 | CCc1ccc(S(=O)(=O)NC(C)c2ccnc(Oc3cccc(N4CCOCC4)c3)c2CC)cc1 (stereo not drawn) [Compound 35] | – | ≥ 3

Reference: patent US8048898B2, “Inhibitor of binding of S1P1” (Taisho Pharmaceutical Co., Ltd, priority 2007, dated 2011)
